Consider twelve molecules from PubChem BioAssay (NCI).

Among the test systems are A498 renal; HCT-116 colon; HOP-92 NSCLC; KM12 colon; RPMI-8226 leukemia; SF-539 CNS; SK-OV-3 ovarian; SN12C renal; SNB-75 CNS; SR leukemia; MDA-MB-231 breast; NCI-H460 lung; HS 578T breast.
Common to all, as to assay: DTP human tumour cell line panel, 48 h

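96-well plates; 48 h exposure; 5 concentrations. Endpoints by linear interpolation between flanking doses. Not reached: highest tested concentration assigned. TGI is the concentration that stops growth completely.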

As for `COC1C=COC2(C)Oc3c(C)c(O)c4c(O)c(c(/C=N/N5CCN(N)CC5)c(O)c4c3C2=O)NC(=O)C(C)=CC=CC(C)C(O)C(C)C(O)C(C)C(OC(C)=O)C1C` (configuration not stated), the TGI (commonly the concentration giving total growth inhibition) in the experiment with A498 renal is above 100 µM; in the experiment on HCT-116 colon it was 80.7 µM; with HOP-92 NSCLC, above 100 µM; in the experiment on KM12 colon, above 100 µM; in the experiment on RPMI-8226 leukemia, 88.8 µM; in the experiment with SF-539 CNS, above 100 µM. Also, the TGI in the experiment on SK-OV-3 ovarian, with SN12C renal, in the experiment with SNB-75 CNS and with SR leukemia was above 100 µM each time.

Consider `Nc1cc(N2CCCC2)nc(=O)n1-c1ccccc1`, for which the TGI in the experiment on HCT-116 colon, in the experiment on HOP-92 NSCLC, in the experiment with KM12 colon, in the experiment on MDA-MB-231 breast, in the experiment on NCI-H460 lung and in the experiment with RPMI-8226 leukemia was above 100 µM each time. The TGI in the experiment with SF-539 CNS, with SN12C renal, with SNB-75 CNS and in the experiment on SR leukemia was above 100 µM throughout.

With `Oc1ccc(N=C2CCC(=C(c3ccccc3)c3ccc(Nc4ccc(O)cc4)cc3)CC2)cc1`, the TGI with A498 renal, with HCT-116 colon, in the experiment on HOP-92 NSCLC, in the experiment on KM12 colon, in the experiment on MDA-MB-231 breast and in the experiment on NCI-H460 lung was above 100 µM throughout. Moreover, the total growth inhibition concentration (TGI) in the experiment with RPMI-8226 leukemia, in the experiment on SF-539 CNS, with SK-OV-3 ovarian, with SN12C renal and with SR leukemia was above 100 µM throughout.

Turning to `CC1Oc2c(c(=O)oc3ccccc23)[C@@]1(C)CC1C[C@H](C)C(=O)O1` (some centres not stated), the TGI is above 100 µM with A498 renal; 28.4 µM in the experiment on HCT-116 colon; above 100 µM in the experiment on HS 578T breast; above 100 µM in the experiment on KM12 colon; above 100 µM in the experiment with MDA-MB-231 breast; 77.4 µM in the experiment on RPMI-8226 leukemia. Besides, the TGI in the experiment with SF-539 CNS was 64.2 µM; with SK-OV-3 ovarian it was above 100 µM; in the experiment with SNB-75 CNS, above 100 µM.

Turning to `C=C(C)[C@@]1(OC(=O)c2cc([N+](=O)[O-])cc([N+](=O)[O-])c2)C[C@@H]2CCCC[C@@H]21`, the TGI in the experiment with HCT-116 colon, in the experiment with HS 578T breast, in the experiment with KM12 colon, with MDA-MB-231 breast, with NCI-H460 lung and in the experiment on RPMI-8226 leukemia was above 100 µM throughout. Also, the TGI in the experiment with SF-539 CNS, with SK-OV-3 ovarian, in the experiment on SN12C renal, in the experiment with SNB-75 CNS and with SR leukemia was above 100 µM in each case.

With `Cc1ncc2c(=O)c3c(oc2n1)c1ccccc1n3Cc1ccccc1`, the TGI with HCT-116 colon, in the experiment with HS 578T breast, in the experiment on KM12 colon, with MDA-MB-231 breast, with NCI-H460 lung and in the experiment on RPMI-8226 leukemia was above 100 µM in each case. Further, the TGI in the experiment on SF-539 CNS, in the experiment with SN12C renal, in the experiment on SNB-75 CNS and in the experiment with SR leukemia was above 100 µM each time.

With `CC(C)(C)OC(=O)NCCc1cccc2c1oc1c(CCC(=O)O)cccc12`, the TGI with A498 renal, in the experiment on HCT-116 colon, in the experiment with HOP-92 NSCLC, with KM12 colon, in the experiment on NCI-H460 lung and in the experiment with RPMI-8226 leukemia was above 100 µM each time. The total growth inhibition concentration (TGI) in the experiment with SF-539 CNS, in the experiment on SK-OV-3 ovarian, with SN12C renal, with SNB-75 CNS and with SR leukemia was above 100 µM each time.

Turning to `CN(N)c1cc(=O)[nH]c(=O)[nH]1`, the TGI in the experiment on A498 renal, in the experiment on HCT-116 colon, in the experiment on HS 578T breast, in the experiment on KM12 colon, in the experiment with MDA-MB-231 breast and in the experiment with NCI-H460 lung was above 100 µM each time. Moreover, the TGI with RPMI-8226 leukemia, with SF-539 CNS, in the experiment on SK-OV-3 ovarian, with SN12C renal and with SR leukemia was above 100 µM throughout.

Take `Cc1cc(S(=O)(=O)Nc2cc(N)[nH]n2)c(SCc2nc(N)nc(N(C)C)n2)cc1Cl`: the TGI in the experiment with A498 renal, in the experiment with HCT-116 colon, with HOP-92 NSCLC, in the experiment with HS 578T breast, in the experiment with KM12 colon and in the experiment with NCI-H460 lung was above 10 µM in each case. In addition, the TGI in the experiment with RPMI-8226 leukemia, in the experiment with SF-539 CNS, in the experiment with SK-OV-3 ovarian, with SN12C renal, in the experiment on SNB-75 CNS and with SR leukemia was above 10 µM throughout.

Regarding `CCOC(=O)C(C)NC(=O)C(C)NC(=O)C(C)NC(=O)C(C)NC(=O)C(C)NC(=O)OCc1ccccc1` (configuration not stated), the TGI with HCT-116 colon, in the experiment on HS 578T breast, in the experiment with KM12 colon, in the experiment on MDA-MB-231 breast, in the experiment on NCI-H460 lung and in the experiment on RPMI-8226 leukemia was above 100 µM throughout. Besides, the TGI with SF-539 CNS, in the experiment on SK-OV-3 ovarian, in the experiment with SN12C renal, with SNB-75 CNS and in the experiment on SR leukemia was above 100 µM throughout.

As for `CCCCC(Sc1cc(Cl)c(C)cc1S(=O)(=O)Nc1n[nH]c(N)n1)C(=O)OC` (configuration not stated), the total growth inhibition concentration (TGI) with A498 renal, in the experiment on HCT-116 colon, in the experiment on HS 578T breast, with KM12 colon, in the experiment with MDA-MB-231 breast and with NCI-H460 lung was above 10 µM in each case. In addition, the TGI with RPMI-8226 leukemia, with SF-539 CNS, in the experiment with SK-OV-3 ovarian, in the experiment on SN12C renal and with SNB-75 CNS was above 10 µM in each case.

For `O=C(O)CCc1ccc2c(c1)C(=O)CC2`, the TGI with A498 renal, in the experiment with HCT-116 colon, in the experiment with KM12 colon, with MDA-MB-231 breast, in the experiment with NCI-H460 lung and with RPMI-8226 leukemia was above 100 µM throughout. Further, the TGI with SF-539 CNS, in the experiment with SK-OV-3 ovarian, in the experiment with SN12C renal and with SR leukemia was above 100 µM in each case.
